Experimental data as given in patent publication US9745360B2 (Sanofi, priority 2012, dated 2017).
Read-outs that look alike come from different tables or passages of the source. *1 amine or outer side, *2 acyl side, *3 side chain or, on linkers, in order; H or OH if unused. Where a SMILES comes first, the peptide text is derived from it. Side-chain parts run from the residue outwards. [ ]: non-standard residue; d: D form. The star is where a group is joined. γGlu = O=C(O)[C@H](CCC(=O)[*:2])N[*:1]; Stearoyl = CCCCCCCCCCCCCCCCCC(=O)*; Palmitoyl = CCCCCCCCCCCCCCCC(=O)*; d(αMeK) = C[C@@](N)(CCCCN)C(=O)O; αMeOrn = C[C@](N)(CCCN)C(=O)O; αMeK = C[C@](N)(CCCCN)C(=O)O; Api = NC1(C(=O)O)CCNCC1; Aib = CC(C)(N)C(=O)O

Key:
[1] = target: T1, human GIP receptor (hGIP R) (Homo sapiens, UniProt P48546); assay: cAMP response (HTRF) of HEK-293 cells stably expressing human GIP receptor; assay type: cell-based; conditions: Table 7; cAMP formation
T1 construct: expressed in transfected cells
T1 sequence (P48546 22-466): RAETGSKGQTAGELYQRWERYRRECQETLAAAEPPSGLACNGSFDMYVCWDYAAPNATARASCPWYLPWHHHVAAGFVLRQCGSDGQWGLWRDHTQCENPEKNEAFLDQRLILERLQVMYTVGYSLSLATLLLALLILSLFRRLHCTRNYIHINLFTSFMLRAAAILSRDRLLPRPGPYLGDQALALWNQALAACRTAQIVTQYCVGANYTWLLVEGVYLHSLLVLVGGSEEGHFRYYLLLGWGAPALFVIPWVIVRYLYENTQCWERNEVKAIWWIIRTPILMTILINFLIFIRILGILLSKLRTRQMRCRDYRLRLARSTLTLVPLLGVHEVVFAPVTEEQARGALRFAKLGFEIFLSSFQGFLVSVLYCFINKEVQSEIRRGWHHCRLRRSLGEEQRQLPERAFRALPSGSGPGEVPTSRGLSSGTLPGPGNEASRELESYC
Method: (§1) cAMP content of cells was determined using a kit from Cisbio Corp. (cat. no. 62AM4PEC) based on HTRF (Homogenous Time Resolved Fluorescence). For preparation, cells were split into T175 culture flasks and grown overnight to near confluency in medium (DMEM/10% FBS). Medium was then removed and cells washed with PBS lacking calcium and magnesium, followed by proteinase treatment with accutase (Sigma-Aldrich cat. no. A6964). Detached cells were washed and resuspended in assay buffer (1×HBSS; 20 mM HEPES, 0.1% BSA, 2 mM IBMX) and cellular density determined. They were then diluted to 400000 cells/ml and 25 μl-aliquots dispensed into the wells of 96-well plates. For measurement, 25 μl of test compound in assay buffer was added to the wells, followed by incubation for 30 minutes at room temperature.

[2] = Solubility testing in buffer, HPLC-UV of supernatant; assay type: physicochemical; conditions: target concentration 1.0 mg/mL
Method: (§2) Solubility and chemical stability of peptidic compounds were assessed as described in Methods.

[3] = Chemical stability in solution, 7 days at 25° C., % remaining peptide; assay type: physicochemical; conditions: % remaining peptide after 7 days at 25° C.
Method: The chemical stability is expressed as “% remaining peptide”.
as §2

[4] = target: T2, human GLP-1 receptor (hGLP-1 R) (Homo sapiens, UniProt P43220); assay: cAMP response (HTRF) of HEK-293 cells stably expressing human GLP-1 receptor; assay type: cell-based; conditions: Table 7; cAMP formation
T2 construct: expressed in transfected cells
T2 sequence (P43220 24-463): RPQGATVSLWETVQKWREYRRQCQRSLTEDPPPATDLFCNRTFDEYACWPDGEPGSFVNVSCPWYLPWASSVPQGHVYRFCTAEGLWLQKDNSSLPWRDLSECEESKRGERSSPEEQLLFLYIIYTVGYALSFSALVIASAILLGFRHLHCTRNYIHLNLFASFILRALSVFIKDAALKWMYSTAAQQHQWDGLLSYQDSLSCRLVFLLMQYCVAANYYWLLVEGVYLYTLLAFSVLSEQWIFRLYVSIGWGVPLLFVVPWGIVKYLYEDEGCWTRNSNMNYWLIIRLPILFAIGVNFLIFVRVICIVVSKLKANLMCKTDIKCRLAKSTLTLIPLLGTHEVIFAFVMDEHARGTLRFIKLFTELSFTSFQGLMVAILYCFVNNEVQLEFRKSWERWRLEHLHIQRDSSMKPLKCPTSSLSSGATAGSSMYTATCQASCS
Method: as §1

Row | Structure (SMILES) | EC50 [1] | solubility ([2]; pH 4.5, read-out: Solubility (pH 4.5)) | solubility ([2]; pH 7.4, read-out: Solubility (pH 7.4)) | Stability (pH 4.5) ([3]; pH 4.5) | Stability (pH 7.4) ([3]; pH 7.4) | EC50 [4]
1 | CCCCCCCCCCCCCCCC(=O)N[C@@H](CCC(=O)NCCCC[C@H](NC(=O)[C@H](CCC(N)=O)NC(=O)[C@@H](NC(=O)[C@H](CO)NC(=O)[C@H](CC(C)C)NC(=O)[C@H](CC(=O)O)NC(=O)[C@H](CO)NC(=O)[C@@H](NC(=O)[C@H](Cc1ccccc1)NC(=O)[C@@H](NC(=O)CNC(=O)[C@H](CCC(=O)O)NC(=O)C(C)(C)NC(=O)[C@@H](N)Cc1ccc(O)cc1)[C@@H](C)O)[C@@H](C)O)[C@@H](C)CC)C(=O)N[C@@H](CCC(=O)O)C(=O)N[C@@H](CCC(=O)O)C(=O)N[C@@H](CCCNC(=N)N)C(=O)N[C@@H](C)C(=O)N[C@@H](C)C(=O)NC1(C(=O)N[C@@H](CCC(=O)O)C(=O)N[C@@H](Cc2ccccc2)C(=O)N[C@H](C(=O)N[C@@H](CCC(=O)O)C(=O)N[C@@H](Cc2c[nH]c3ccccc23)C(=O)N[C@@H](CC(C)C)C(=O)N[C@@H](CCCCN)C(=O)N[C@@H](CC(N)=O)C(=O)N[C@H](C(=O)NCC(=O)N2CCC[C@H]2C(=O)N[C@@H](CO)C(=O)N[C@@H](CO)C(=O)NCC(=O)N[C@@H](C)C(=O)N2CCC[C@H]2C(=O)N2CCC[C@H]2C(=O)N2CCC[C@H]2C(=O)N[C@@H](CO)C(N)=O)[C@@H](C)O)[C@@H](C)CC)CCNCC1)C(=O)O [SEQ ID NO: 8, Y-Aib-E-G-T-F-T-S-D-L-S-I-Q-K(γE-x53)-E-E-R-A-A-Pip-E-F-I-E-W-L-K-N-T-G-P-S-S-G-A-P-P-P-S-NH2] (H-Y[Aib]EGTFTSDLSIQK([γGlu-Palmitoyl])EERAA[Api]EFIEWLKNTGPSSGAPPPS-NH2) | 16.3 pM | > 1000 µg/mL | > 1000 µg/mL | 93.0% | 93.0% | –
2 | CCCCCCCCCCCCCCCC(=O)N[C@@H](CCC(=O)NCCCC[C@H](NC(=O)[C@H](CCC(N)=O)NC(=O)[C@@H](NC(=O)[C@H](CO)NC(=O)[C@H](CC(C)C)NC(=O)[C@H](CC(=O)O)NC(=O)[C@H](CO)NC(=O)[C@@H](NC(=O)[C@H](Cc1ccccc1)NC(=O)[C@@H](NC(=O)CNC(=O)[C@H](CCC(=O)O)NC(=O)C(C)(C)NC(=O)[C@@H](N)Cc1ccc(O)cc1)[C@@H](C)O)[C@@H](C)O)[C@@H](C)CC)C(=O)N[C@@H](CCC(=O)O)C(=O)N[C@@H](CCC(=O)O)C(=O)N[C@@H](CCCNC(=N)N)C(=O)N[C@@H](C)C(=O)N[C@@H](C)C(=O)N[C@@](C)(CCCN)C(=O)N[C@@H](CCC(=O)O)C(=O)N[C@@H](Cc1ccccc1)C(=O)N[C@H](C(=O)N[C@@H](CCC(=O)O)C(=O)N[C@@H](Cc1c[nH]c2ccccc12)C(=O)N[C@@H](CC(C)C)C(=O)N[C@@H](CCCCN)C(=O)N[C@@H](CC(N)=O)C(=O)N[C@H](C(=O)NCC(=O)N1CCC[C@H]1C(=O)N[C@@H](CO)C(=O)N[C@@H](CO)C(=O)NCC(=O)N[C@@H](C)C(=O)N1CCC[C@H]1C(=O)N1CCC[C@H]1C(=O)N1CCC[C@H]1C(=O)N[C@@H](CO)C(N)=O)[C@@H](C)O)[C@@H](C)CC)C(=O)O [SEQ ID NO: 10, Y-Aib-E-G-T-F-T-S-D-L-S-I-Q-K(γE-x53)-E-E-R-A-A-(S)MeOrn-E-F-I-E-W-L-K-N-T-G-P-S-S-G-A-P-P-P-S-NH2] (H-Y[Aib]EGTFTSDLSIQK([γGlu-Palmitoyl])EERAA[αMeOrn]EFIEWLKNTGPSSGAPPPS-NH2) | 7.1 pM | – | – | – | – | 4.9 pM
3 | CCCCCCCCCCCCCCCCCC(=O)N[C@@H](CCC(=O)NCCCC[C@H](NC(=O)[C@H](CCC(N)=O)NC(=O)[C@@H](NC(=O)[C@H](CO)NC(=O)[C@H](CC(C)C)NC(=O)[C@H](CC(=O)O)NC(=O)[C@H](CO)NC(=O)[C@@H](NC(=O)[C@H](Cc1ccccc1)NC(=O)[C@@H](NC(=O)CNC(=O)[C@H](CCC(N)=O)NC(=O)C(C)(C)NC(=O)[C@@H](N)Cc1ccc(O)cc1)[C@@H](C)O)[C@@H](C)O)[C@@H](C)CC)C(=O)N[C@@H](CC(=O)O)C(=O)N[C@@H](CCC(=O)O)C(=O)N[C@@H](CCC(N)=O)C(=O)N[C@@H](CCCNC(=N)N)C(=O)N[C@@H](C)C(=O)N[C@](C)(CCCCN)C(=O)N[C@@H](CCC(=O)O)C(=O)N[C@@H](Cc1ccccc1)C(=O)N[C@H](C(=O)N[C@@H](CCC(=O)O)C(=O)N[C@@H](Cc1c[nH]c2ccccc12)C(=O)N[C@@H](CC(C)C)C(=O)N[C@@H](CCCCN)C(=O)N[C@@H](CO)C(=O)NCC(=O)NCC(=O)N1CCC[C@H]1C(=O)N[C@@H](CO)C(=O)N[C@@H](CO)C(=O)NCC(=O)N[C@@H](C)C(=O)N1CCC[C@H]1C(=O)N1CCC[C@H]1C(=O)N1CCC[C@H]1C(=O)N[C@@H](CO)C(N)=O)[C@@H](C)CC)C(=O)O [SEQ ID NO: 13, Y-Aib-Q-G-T-F-T-S-D-L-S-I-Q-K(γE-x70)-D-E-Q-R-A-(R)MeLys-E-F-I-E-W-L-K-S-G-G-P-S-S-G-A-P-P-P-S-NH2] (H-Y[Aib]QGTFTSDLSIQK([γGlu-Stearoyl])DEQRA[d(αMeK)]EFIEWLKSGGPSSGAPPPS-NH2) | – | – | – | – | – | 13.6 pM
4 | CCCCCCCCCCCCCCCCCC(=O)N[C@@H](CCC(=O)NCCCC[C@H](NC(=O)[C@H](CCC(N)=O)NC(=O)[C@@H](NC(=O)[C@H](CO)NC(=O)[C@H](CC(C)C)NC(=O)[C@H](CC(=O)O)NC(=O)[C@H](CO)NC(=O)[C@@H](NC(=O)[C@H](Cc1ccccc1)NC(=O)[C@@H](NC(=O)CNC(=O)[C@H](CCC(=O)O)NC(=O)C(C)(C)NC(=O)[C@@H](N)Cc1ccc(O)cc1)[C@@H](C)O)[C@@H](C)O)[C@@H](C)CC)C(=O)N[C@@H](CC(=O)O)C(=O)N[C@@H](CCC(=O)O)C(=O)N[C@@H](CCCNC(=N)N)C(=O)N[C@@H](C)C(=O)N[C@@H](C)C(=O)N[C@@](C)(CCCCN)C(=O)N[C@@H](CCC(=O)O)C(=O)N[C@@H](Cc1ccccc1)C(=O)N[C@H](C(=O)N[C@@H](CCC(=O)O)C(=O)N[C@@H](Cc1c[nH]c2ccccc12)C(=O)N[C@@H](CC(C)C)C(=O)N[C@@H](CCCCN)C(=O)N[C@@H](CC(N)=O)C(=O)N[C@H](C(=O)NCC(=O)N1CCC[C@H]1C(=O)N[C@@H](CO)C(=O)N[C@@H](CO)C(=O)NCC(=O)N[C@@H](C)C(=O)N1CCC[C@H]1C(=O)N1CCC[C@H]1C(=O)N1CCC[C@H]1C(=O)N[C@@H](CO)C(N)=O)[C@@H](C)O)[C@@H](C)CC)C(=O)O [SEQ ID NO: 14, Y-Aib-E-G-T-F-T-S-D-L-S-I-Q-K(γE-x70)-D-E-R-A-A-(S)MeLys-E-F-I-E-W-L-K-N-T-G-P-S-S-G-A-P-P-P-S-NH2] (H-Y[Aib]EGTFTSDLSIQK([γGlu-Stearoyl])DERAA[αMeK]EFIEWLKNTGPSSGAPPPS-NH2) | – | – | – | – | – | 7.2 pM
